Assay results taken from US7357991B2, “Soluble compound and organic electroluminescent devices” (Idemitsu Kosan Co., Ltd., priority 2001, dated 2008).

Assay: Solubility in organic solvents
Assay type: physicochemical
Conditions: in each of toluene, xylene, N-methylpyrrolidone, γ-butyrolactone, 1,3-dimethyl-2-imidazoline, carbitol acetate, butylcarbitol acetate, dichloromethane, dichloroethane, chlorobenzene and isopropyl alcohol
Procedure: Examples of the distyrylarylene derivative represented by general formula (1) of the present invention will be shown in the following. However, the distyrylarylene derivative of the present invention is not limited to the compounds shown as the examples. In the following, C5 means n-pentyl group. The compounds shown in the following as the examples are all dissolved into 1,2-dichloroethane at 20° C. in an amount of 0.5% by weight or more.
In the same procedures as those conducted in Example 1, 4,4″-bis(2,2-diphenylethenyl)-9′,10′-diphenylanthracene was used in place of Compound (A1) and attempted to be dissolved in organic solvents, which were toluene, xylene, N-methylpyrrolidone, γ-butyrolactone, 1,3-dimethyl-2-imidazoline, carbitol acetate, butylcarbitol acetate, dichloromethane, dichloroethane, chlorobenzene and isopropyl alcohol. However, this compound was hardly soluble in these solvents since the solubility was smaller than 0.01% by weight in all of these solvents, and no device could be prepared.

In the case of `C(=C(c1ccccc1)c1ccccc1)c1ccc(-c2c3ccccc3c(-c3ccc(C=C(c4ccccc4)c4ccccc4)cc3)c3ccccc23)cc1` [4,4″-bis(2,2-diphenylethenyl)-9′,10′-diphenylanthracene], the solubility is reported as “smaller than 0.01 % by weight”.
